This is an account of results in patent publication US20250268894A1, “MACROCYCLE COMPOUNDS FOR THE TREATMENT OF CANCER” (Hoffmann-La Roche Inc., priority 2022, published 2025).

Test [1] deals with KRAS G12C-BRAF complex (Homo sapiens (Human), UniProt P01116+P62937, G12C). Description: KRAS-BRAF with CYPA (500 nM) interaction assay (TR-FRET), G12C. The test is classed as biochemical. The method, then: (§1) Kras-BRAF with CYPA (500 nM) Interaction Assay In this example, TR-FRET was also used to measure the compound or compound-CYPA dependent disruption of the KRAS G12C-BRAF complex. This protocol was also used to measure disruption of KRAS G12D or KRAS G12V binding to BRAF by a compound of the invention, respectively. […] Compound was present in plate wells as a 16-point 3-fold dilution series starting at a final concentration of 10 μM and incubated for 3 hours. […] TR-FRET signal was read on a […] microplate reader (Ex320 nm, Em 665/615 nm). Compounds that facilitate disruption of the KRAS-BRAF complex were identified as those eliciting a decrease in the TR-FRET ratio relative to DMSO control wells.
Sequence of KRAS G12C-BRAF complex (P01116-2 other isoform, or with tags, fused parts or gaps G12C): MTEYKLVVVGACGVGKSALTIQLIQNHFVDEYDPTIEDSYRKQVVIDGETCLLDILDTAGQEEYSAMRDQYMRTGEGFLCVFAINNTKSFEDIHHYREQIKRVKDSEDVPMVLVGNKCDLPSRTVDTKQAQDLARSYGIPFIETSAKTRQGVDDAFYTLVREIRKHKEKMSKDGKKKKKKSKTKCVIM
Sequence of KRAS G12C-BRAF complex (P62937 whole entry): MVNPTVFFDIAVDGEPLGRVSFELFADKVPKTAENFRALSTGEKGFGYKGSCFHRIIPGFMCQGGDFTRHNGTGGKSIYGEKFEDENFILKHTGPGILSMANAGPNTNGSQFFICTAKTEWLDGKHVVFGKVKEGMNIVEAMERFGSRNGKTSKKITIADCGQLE

Test [2] has as its target KRAS G12D-BRAF complex (Homo sapiens (Human), UniProt P01116+P62937, G12D). Put plainly: KRAS-BRAF with CYPA (500 nM) interaction assay (TR-FRET), G12D. The test is classed as biochemical. The method, then: as §1
Test [3] deals with NCI-H358 cells (KRAS G12C). Put plainly: Cell viability assay (Cell Counting Kit-8), KRAS G12C. The test is classed as cell-based. Conditions: Homo sapiens, NCI-H358, 72 hrs. Here is the method:
(§2) The purpose of this cellular assay was to determine the effects of test compounds on the proliferation of human cancer cell lines NCI-H358 (ATCC-CRL5807) cells, AGS (ATCC-CRL-1739) cells, SW620 (ATCC-CCL-227) over a 3-day treatment period by quantifying the amount of NADPH present at endpoint using Cell Counting Kit-8.
(§3) Cells were seeded at 5,000 cells/well (NCI-H358), 2,000 cells/well (AGS)2,000 cells/well (SW620) in 96-well assay plates (Corning-3699) and incubated overnight. On the day of the assay, diluted compounds were then added in a final concentration of 0.5% DMSO. After 72 hrs incubation, a tenth of the volume of cell counting kit 8 (Dnjindo-CK04) was added into each well. Read the signal (OD450 minus OD650) using EnVision after 2 hrs incubation. IC50 was determined by fitting a 4-parameter sigmoidal concentration response model.

In test [4] the test system is phosphorylation of ERK, KRAS G12C in NCI-H358 cells. Put plainly: pERK inhibition assay, KRAS G12C in NCI-H358 cells. The test is classed as cell-based, human. The following applies: Homo sapiens, NCI-H358, 4 hours. The method, then:
(§4) This assay is to measure the ability of test compounds in inhibiting the phosphorylation of ERK, the downstream signaling of KRAS G12C in NCI-H358 cells, KRAS G12D in AGS cells, and KRAS G12V in SW620. NCI-H358 (ATCC-CRL5807) cells, AGS (ATCC-CRL-1739) cells, SW620 (ATCC-CCL-227) cells were all grown and maintained using RPMI-1640 medium (Thermo Fisher Scientific) with 10% fetal bovine serum and 1% penicillin/streptomycin. On the day prior to compound addition, cells were plated in tissue culture-treated 96 well plates (Corning-3699) at a density of 30,000 cell/well, 20,000 cell/well, 30,000 cell/well for NCI-H358, AGS and SW620 respectively, and allowed for attachment overnight. Diluted compounds were then added in a final concentration of 0.5% DMSO. After 4 hours of incubation, the medium was removed, 100 μL of 4% formaldehyde was added, and the assay plates were incubated at room temperature for 20 minutes. The plates were then washed once with phosphate buffered saline (PBS), and permeabilized with 100 μL of chilled methanol for 10 minutes. Non-specific antibody binding to the plates was blocked using 50 μL 1X BSA blocking buffer (Thermo-37520, 10-fold dilution by Phosphate-Buffered Saline Tween (PBST) for at least 1 hour at room temperature.
(§5) The amount of phosphor-ERK was determined using an antibody specific for phosphorylated form of ERK. Primary antibody (PERK, CST-4370, Cell Signaling Technology) was diluted 1:300 in blocking buffer, with 50 μL aliquoted to each well, and incubated overnight at 4° C. Cells was washed five times for 5 minutes with PBST. Secondary antibody (HRP-linked anti-rabbit IgG, CST-7074, Cell Signaling Technology) was diluted 1:1000 in blocking buffer, and 50 μL was added to each well and incubated 1-2 hrs at room temperature. Cells was washed […] for 5 minutes with PBST, 100 μL TMB ELISA substrate (abcam-ab171523) were added and gently shake for 20 minutes. 50 μL stop solution (abcam-ab171529) were added, and then read the signal (OD450) by EnVision.
(§6) IC50 was determined by fitting a 4-parameter sigmoidal concentration response model.

The subject of test [5] is SW620 cells (KRAS G12V). Put plainly: Cell viability assay (Cell Counting Kit-8), KRAS G12V. The test is classed as cell-based. Conditions: Homo sapiens, SW-620, SW620, 72 hrs. The method, then:
as §2, §3

Test [6] addresses KRAS G12V-BRAF complex (Homo sapiens (Human), UniProt P01116+P62937, G12V). Description: KRAS-BRAF with CYPA (500 nM) interaction assay (TR-FRET), G12V. The test is classed as biochemical. The method, then:
as §1

The subject of test [7] is AGS cells (KRAS G12D). Put plainly: Cell viability assay (Cell Counting Kit-8), KRAS G12D. The test is classed as cell-based. Conditions: Homo sapiens, 72 hrs. Here is the method: as §2, §3
Test [8] has as its system phosphorylation of ERK, KRAS G12V in SW620 cells. Description: pERK inhibition assay, KRAS G12V in SW620. Conditions: Homo sapiens, SW-620, SW620, 4 hours. The test is classed as cell-based, human. The method, then: as §4, §5, §6
Test [9] relates to phosphorylation of ERK, KRAS G12D in AGS cells. Put plainly: pERK inhibition assay, KRAS G12D in AGS cells. The test is classed as cell-based, human. The following applies: Homo sapiens, 4 hours. The method, then:
as §4, §5, §6

SMILES strings stand for the structures.

Sequence of KRAS G12V-BRAF complex (P01116-2 other isoform, or with tags, fused parts or gaps G12V): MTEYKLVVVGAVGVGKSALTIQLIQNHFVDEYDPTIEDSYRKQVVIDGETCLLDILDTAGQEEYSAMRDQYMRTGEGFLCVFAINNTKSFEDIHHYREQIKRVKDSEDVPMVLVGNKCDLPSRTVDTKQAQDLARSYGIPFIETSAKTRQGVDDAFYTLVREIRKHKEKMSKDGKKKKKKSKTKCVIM
Sequence of KRAS G12V-BRAF complex (P62937 whole entry): as the sequence (P62937 whole entry) above
Sequence of KRAS G12D-BRAF complex (P01116-2 other isoform, or with tags, fused parts or gaps G12D): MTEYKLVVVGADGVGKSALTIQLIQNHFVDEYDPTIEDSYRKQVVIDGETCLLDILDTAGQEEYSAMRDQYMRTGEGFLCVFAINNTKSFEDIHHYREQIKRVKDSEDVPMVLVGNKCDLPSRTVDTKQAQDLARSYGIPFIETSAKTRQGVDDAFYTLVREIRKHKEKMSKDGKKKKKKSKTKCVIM
Sequence of KRAS G12D-BRAF complex (P62937 whole entry): as the sequence (P62937 whole entry) above

`CO[C@@H](C)c1ncc(N2CCN(C)CC2)cc1-c1c2c3cc(c(F)cc3n1CC(F)(F)F)-c1csc(n1)C[C@H](NC(=O)[C@H](C(C)C)N(C)C(=O)N1CC(N(C)C)C1)C(=O)N1CCC[C@H](N1)C(=O)OCC(C)(C)C2` (atropisomer, axis not shown; (M)) [Example 1, 3-(dimethylamino)-N-[(1S)-1-[[(7S,13S)-24-fluoro-(20M)-20-[2-[(1S)-1-methoxyethyl]-5-(4-methylpiperazin-1-yl)-3-pyridyl]-17,17-dimethyl-8,14-dioxo-21-(2,2,2-trifluoroethyl)-15-oxa-4-thia-9,21,27,28-tetrazapentacyclo[17.5.2.1^2,5.1^9,13.0^22,26]octacosa-1(25),2,5 (28),19,22 (26),23-hexaen-7-yl]carbamoyl]-2-methyl-propyl]-N-methyl-azetidine-1-carboxamide]: the IC50 came to 46 nM in test [1]; 147 nM in [2]; 2 nM in [3]; 1 nM in test [4]; 1 nM in [5]; 70 nM in test [6]. Also, the concentration for half-maximal inhibition (IC50) amounted to 13 nM in [7], 1 nM in test [8] and 2 nM in test [9].

Regarding `CCn1c(-c2cc(N3CCOCC3)cnc2[C@H](C)OC)c2c3cc(c(F)cc31)-c1csc(n1)C[C@H](NC(=O)[C@H](C(C)C)N(C)C(=O)N1CC(F)(F)C1)C(=O)N1CCC[C@H](N1)C(=O)OCC(C)(C)C2` (atropisomer, axis not shown; (M)) [Example 7, N-[(1S)-1-[[(7S,13S)-21-ethyl-24-fluoro-(20M)-20-[2-[(1S)-1-methoxyethyl]-5-morpholino-3-pyridyl]-17,17-dimethyl-8,14-dioxo-15-oxa-4-thia-9,21,27,28-tetrazapentacyclo[17.5.2.1^2,5.1^9,13.0^22,26]octacosa-1 (25),2,5 (28),19,22 (26),23-hexaen-7-yl]carbamoyl]-2-methyl-propyl]-3,3-difluoro-N-methyl-azetidine-1-carboxamide], the IC50 in test [1] stood at 95 nM; in [2], 472 nM; in test [6], 611 nM.

In the case of `CCn1c(-c2cc(N3CCN(CC(F)(F)F)CC3)cnc2[C@H](C)OC)c2c3cc(c(F)cc31)-c1csc(n1)C[C@H](NC(=O)[C@H](C(C)C)N(C)C(=O)N1CCOCC1)C(=O)N1CCC[C@H](N1)C(=O)OCC(C)(C)C2` (atropisomer, axis not shown; (M)) [Example 9, N-[(1S)-1-[[(7S,13S)-21-ethyl-24-fluoro-(20M)-20-[2-[(1S)-1-methoxyethyl]-5-[4-(2,2,2-trifluoroethyl)piperazin-1-yl]-3-pyridyl]-17,17-dimethyl-8,14-dioxo-15-oxa-4-thia-9,21,27,28-tetrazapentacyclo[17.5.2.1^2,5.1^9,13.0^22,26]octacosa-1 (25),2,5 (28),19,22 (26),23-hexaen-7-yl]carbamoyl]-2-methyl-propyl]-N-methyl-morpholine-4-carboxamide], the IC50 in test [1] worked out at 49 nM; in test [2], 225 nM; in test [3], 24 nM; in test [4], 24 nM; in test [5], 14 nM; in test [6] it was 124 nM. Further, the half-inhibitory concentration (IC50) was determined as 91 nM in [7], 9 nM in [8] and 23 nM in test [9].

With `CCn1c(-c2cc(N3CCN(C)CC3)cnc2[C@H](C)OC)c2c3cc(c(F)cc31)-c1csc(n1)C[C@H](NC(=O)[C@H](C(C)C)N(C)C(=O)N1CCOCC1)C(=O)N1CCC[C@H](N1)C(=O)OCC(C)(C)C2` (atropisomer, axis not shown; (M)) [Example 10, N-[(1S)-1-[[(7S,13S)-21-ethyl-24-fluoro-(20M)-20-[2-[(1S)-1-methoxyethyl]-5-(4-methylpiperazin-1-yl)-3-pyridyl]-17,17-dimethyl-8,14-dioxo-15-oxa-4-thia-9,21,27,28-tetrazapentacyclo[17.5.2.1^2,5.1^9,13.0^22,26]octacosa-1 (25),2,5 (28),19,22 (26),23-hexaen-7-yl]carbamoyl]-2-methyl-propyl]-N-methyl-morpholine-4-carboxamide], the half-inhibitory concentration (IC50) in test [1] amounted to 61 nM; in [2], 186 nM; in [3] it was 6 nM; in test [4], 14 nM; in test [5], 6 nM; in test [6], 149 nM. The figures for the IC50 in test [7], in test [8] and in test [9] were 40 nM, 6 nM and 8 nM, respectively.

On to `CO[C@@H](C)c1ncc(N2CCOCC2)cc1-c1c2c3cc(c(F)cc3n1CC(F)(F)F)-c1csc(n1)C[C@H](NC(=O)[C@H](C(C)C)N(C)C(=O)N1CCOCC1)C(=O)N1CCC[C@H](N1)C(=O)OCC(C)(C)C2` (atropisomer, axis not shown; (M)) [Example 11, N-[(1S)-1-[[(7S,13S)-24-fluoro-20-(20M)-[2-[(1S)-1-methoxyethyl]-5-morpholino-3-pyridyl]-17,17-dimethyl-8,14-dioxo-21-(2,2,2-trifluoroethyl)-15-oxa-4-thia-9,21,27,28-tetrazapentacyclo[17.5.2.1^2,5.1^9,13.0^22,26]octacosa-1(25),2,5(28),19,22(26),23-hexaen-7-yl]carbamoyl]-2-methyl-propyl]-N-methyl-morpholine-4-carboxamide], for which the IC50 in test [1] worked out at 24 nM; in test [2], 112 nM; in [3], 2 nM; in test [4] it was 3 nM; in test [5], 1 nM; in test [6] it was 59 nM. The values for the IC50 in test [7], in [8] and in test [9] were 6 nM, 1 nM and 1 nM, respectively.
